Experimental data reported in patent US12264158B2, “Protein kinase MKK4 inhibitors for promoting liver regeneration or reducing or preventing hepatocyte death” (HEPAREGENIX GMBH, priority 2018, dated 2025).

Tests used:
MKK4 active = target: T1, MKK4 active (Homo sapiens, UniProt P45985); assay: Radiometric protein kinase assay, MKK4 active; assay type: biochemical; conditions: substrate JNK1 KRKR, ATP 0.2 μM, read-out: MKK4, potency derived from IC50-values
T1 construct: purchased ProQinase #0948-0000-1
T1 sequence (P45985 1-399): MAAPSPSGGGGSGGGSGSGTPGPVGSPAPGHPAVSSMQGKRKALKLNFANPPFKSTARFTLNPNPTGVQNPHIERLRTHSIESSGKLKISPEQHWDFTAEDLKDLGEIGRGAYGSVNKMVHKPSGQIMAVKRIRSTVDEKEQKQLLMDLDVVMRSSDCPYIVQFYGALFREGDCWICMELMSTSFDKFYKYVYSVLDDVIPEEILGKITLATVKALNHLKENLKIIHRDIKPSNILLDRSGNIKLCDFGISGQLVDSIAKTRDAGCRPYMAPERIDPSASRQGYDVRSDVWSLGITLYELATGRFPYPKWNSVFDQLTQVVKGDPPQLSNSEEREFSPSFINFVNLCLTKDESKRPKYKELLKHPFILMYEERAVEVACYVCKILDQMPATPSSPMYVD
Method: (§1) A radiometric protein kinase assay was used for measuring the kinase activity of the respective protein kinases. All kinase assays were performed in 96-well polypropylene plates. After the reactions were stopped, the assay mixtures were transferred to 96-well MSFC filter-plates (Millipore). The reaction mix was passed through the filter membrane by aspiration, the membrane was washed 3 times with 150 mM H3PO4, once with ethanol, dried and liquid scintillation cocktail was added. Radioactivity was determined by counting of the samples in a Microbeta multiwell scintillation counter (Wallac).

MKK4 = target: T2, MKK4 (Homo sapiens, UniProt P45985); assay: KINOMEscan competition binding assay, MKK4 potency; conditions: concentration of 100 nM
T2 construct: S84/D399; host or cells: HEK-293
T2 sequence (P45985 84-399): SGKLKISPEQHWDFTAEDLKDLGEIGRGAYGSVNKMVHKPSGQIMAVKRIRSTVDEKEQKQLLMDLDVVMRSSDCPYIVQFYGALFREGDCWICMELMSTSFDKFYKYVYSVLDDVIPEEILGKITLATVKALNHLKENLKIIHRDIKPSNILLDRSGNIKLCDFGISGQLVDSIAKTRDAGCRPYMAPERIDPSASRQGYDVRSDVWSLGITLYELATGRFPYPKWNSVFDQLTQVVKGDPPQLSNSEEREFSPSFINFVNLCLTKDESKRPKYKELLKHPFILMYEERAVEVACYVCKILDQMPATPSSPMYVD
Method: (§2) The assay was performed by combining three components: DNA-tagged kinase; immobilized ligand; and a test compound. The ability of the test compound to compete with the immobilized ligand was measured via quantitative PCR of the DNA tag. The technology is described in detail in Fabian, M. A. et al. A small molecule-kinase interaction map for clinical kinase inhibitors. Nat. […] M. W. et al. A quantitative analysis of kinase inhibitor selectivity, Nat.
(§3) For investigation of the affinity to MKK4, MKK7 and JNK1, the kinases were produced in HEK-293 cells and subsequently tagged with DNA for qPCR detection. […] The liganded beads were blocked with excess biotin and washed with blocking buffer (SEABLOCK™ (Pierce), 1% BSA, 0.05% TWEEN®20, 1 mM DTT) to remove unbound ligand and to reduce nonspecific binding. […] All reactions were performed in polystyrene 96-well plates in a final volume of 0.135 mL. […] The kinase concentration in the eluates was measured by qPCR.
(§4) The test compounds were provided as 10 mM stock solutions. The test solutions at indicated final concentrations were prepared at DiscoverX.

JNK1 = target: T3, JNK1 (Homo sapiens, UniProt P45983); assay: KINOMEscan competition binding assay, selectivity against off-target JNK1; conditions: concentration of 100 nM
T3 construct: M1/Q384; host or cells: HEK-293
T3 sequence (P45983 1-384 isoform P45983-2): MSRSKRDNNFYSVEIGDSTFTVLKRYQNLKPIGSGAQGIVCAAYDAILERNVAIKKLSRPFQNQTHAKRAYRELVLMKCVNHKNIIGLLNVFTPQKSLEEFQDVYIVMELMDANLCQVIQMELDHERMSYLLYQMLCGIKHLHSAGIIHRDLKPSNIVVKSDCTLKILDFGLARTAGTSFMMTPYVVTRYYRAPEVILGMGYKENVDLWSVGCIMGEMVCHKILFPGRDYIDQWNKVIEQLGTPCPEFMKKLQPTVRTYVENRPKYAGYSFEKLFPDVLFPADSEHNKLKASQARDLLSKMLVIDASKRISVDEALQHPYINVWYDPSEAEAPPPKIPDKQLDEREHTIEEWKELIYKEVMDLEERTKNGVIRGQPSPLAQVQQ
Method: as §2, §3, §4

MKK7 = target: T4, MKK7 (Homo sapiens, UniProt O14733); assay: KINOMEscan competition binding assay, selectivity against off-target MKK7; conditions: concentration of 100 nM
T4 construct: M1/R419; host or cells: HEK-293
T4 sequence (O14733 1-419): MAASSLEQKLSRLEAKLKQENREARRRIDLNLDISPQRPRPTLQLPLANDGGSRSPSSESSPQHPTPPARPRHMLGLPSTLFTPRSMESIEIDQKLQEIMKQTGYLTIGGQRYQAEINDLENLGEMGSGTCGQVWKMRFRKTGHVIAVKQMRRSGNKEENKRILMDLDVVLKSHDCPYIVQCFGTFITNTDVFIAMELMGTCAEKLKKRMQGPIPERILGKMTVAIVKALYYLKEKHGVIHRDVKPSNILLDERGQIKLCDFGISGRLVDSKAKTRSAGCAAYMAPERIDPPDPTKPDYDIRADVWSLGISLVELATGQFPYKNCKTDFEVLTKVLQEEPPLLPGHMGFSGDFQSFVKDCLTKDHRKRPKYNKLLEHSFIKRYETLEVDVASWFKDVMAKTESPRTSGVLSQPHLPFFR
Method: as §2, §3, §4

BRaf = BRaf (Homo sapiens, UniProt P15056); assay: KINOMEscan competition binding assay, selectivity against off-target BRaf; conditions: concentration of 100 nM
BRaf, sequence (P15056 whole entry): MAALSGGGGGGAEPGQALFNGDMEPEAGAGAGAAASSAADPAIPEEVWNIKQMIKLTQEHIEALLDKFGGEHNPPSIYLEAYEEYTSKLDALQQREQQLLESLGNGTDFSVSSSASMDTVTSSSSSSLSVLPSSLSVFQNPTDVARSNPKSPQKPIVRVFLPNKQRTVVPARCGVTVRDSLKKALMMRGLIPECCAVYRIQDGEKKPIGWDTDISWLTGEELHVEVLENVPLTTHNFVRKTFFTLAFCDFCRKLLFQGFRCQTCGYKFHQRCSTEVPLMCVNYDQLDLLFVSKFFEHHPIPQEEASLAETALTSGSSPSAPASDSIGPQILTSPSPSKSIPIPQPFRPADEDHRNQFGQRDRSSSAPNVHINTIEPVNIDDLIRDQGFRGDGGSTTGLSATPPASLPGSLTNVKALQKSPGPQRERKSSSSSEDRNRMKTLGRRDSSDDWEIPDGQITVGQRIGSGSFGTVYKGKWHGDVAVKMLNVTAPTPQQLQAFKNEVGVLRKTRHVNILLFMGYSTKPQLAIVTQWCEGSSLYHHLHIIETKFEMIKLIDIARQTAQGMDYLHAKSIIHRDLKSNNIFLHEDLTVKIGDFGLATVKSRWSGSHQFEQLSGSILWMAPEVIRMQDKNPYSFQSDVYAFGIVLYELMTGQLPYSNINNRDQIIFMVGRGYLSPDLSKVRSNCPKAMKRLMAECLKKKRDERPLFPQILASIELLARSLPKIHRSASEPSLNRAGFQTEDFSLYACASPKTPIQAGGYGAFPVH
Method: as §2, §4

MEKK2 = target: T5, MEKK2 (Homo sapiens, UniProt Q9Y2U5); assay: Radiometric protein kinase assay, MEKK2; assay type: biochemical; conditions: substrate Casein, ATP 0.2 μM; read-out: MEKK2, potency derived from IC50-values
T5 construct: purchased ProQinase #0583-0000-1
T5 sequence (Q9Y2U5 1-619): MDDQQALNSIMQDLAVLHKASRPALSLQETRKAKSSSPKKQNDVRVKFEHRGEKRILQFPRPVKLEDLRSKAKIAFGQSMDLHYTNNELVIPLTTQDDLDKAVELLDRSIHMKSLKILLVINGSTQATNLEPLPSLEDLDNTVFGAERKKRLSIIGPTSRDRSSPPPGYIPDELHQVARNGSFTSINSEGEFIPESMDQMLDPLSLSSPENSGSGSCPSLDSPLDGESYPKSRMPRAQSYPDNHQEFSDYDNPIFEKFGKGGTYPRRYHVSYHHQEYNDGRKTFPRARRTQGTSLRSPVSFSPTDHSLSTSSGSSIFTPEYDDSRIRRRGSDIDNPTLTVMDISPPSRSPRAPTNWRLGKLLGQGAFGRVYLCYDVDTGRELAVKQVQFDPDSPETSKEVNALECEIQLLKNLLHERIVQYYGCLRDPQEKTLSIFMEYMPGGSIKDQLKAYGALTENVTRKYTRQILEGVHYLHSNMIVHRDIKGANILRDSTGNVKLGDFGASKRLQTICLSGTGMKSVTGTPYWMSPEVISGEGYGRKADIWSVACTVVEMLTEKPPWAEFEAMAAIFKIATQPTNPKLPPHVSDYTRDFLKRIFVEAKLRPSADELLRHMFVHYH
Method: as §1

Row | IC50 (MKK4 active) [µM] | IC50 (MEKK2) [µM] | Compound | further results
1 | < 0.5 |  | CS(=O)(=O)Nc1c(F)ccc(C(=O)c2n[nH]c3ncc(-c4ccc(C(N)=O)cc4)cc23)c1F [Example 54b, 4-[3-[2,4-difluoro-3-(methanesulfonamido)benzoyl]-1H-pyrazolo[3,4-b]pyridin-5-yl]benzamide] | 
2 | < 0.5 |  | CCCS(=O)(=O)Nc1c(F)ccc(C(=O)c2n[nH]c3ncc(-c4ccc(C(=O)O)cc4)cc23)c1F [Example 62, 4-(3-(2,4-difluoro-3-(propylsulfon-amido)benzoyl)-1H-pyrazolo[3,4-b]pyridin-5-yl)benzoic acid] | MKK4, residual percent of control binding (PoC) (MKK4): +++ (PoC < 1); Selectivity vs. JNK1, ratio PoC(JNK1)/PoC(MKK4) (JNK1): +++ (PoC(JNK1)/PoC(MKK4) ≥ 30); Selectivity vs. MKK7, ratio PoC(MKK7)/PoC(MKK4) (MKK7): +++ (PoC(MKK7)/PoC(MKK4) ≥ 30); Selectivity vs. BRaf, ratio PoC(BRaf)/PoC(MKK4) (BRaf): +++ (PoC(BRaf)/PoC(MKK4) ≥ 30)
3 | < 0.5 |  | CS(=O)(=O)Nc1c(F)ccc(C(=O)c2n[nH]c3ncc(-c4ccc(S(N)(=O)=O)cc4)cc23)c1F [Example 54c, 4-[3-[2,4-difluoro-3-(methanesulfonamido)benzoyl]-1H-pyrazolo[3,4-b]pyridin-5-yl]benzenesulfonamide] | 
4 | < 0.5 |  | O=C(c1ccc(F)c(NS(=O)(=O)Cc2ccccc2)c1F)c1n[nH]c2ncc(-c3ccncc3)cc12 [Example 68, N-[2,6-difluoro-3-(5-pyridin-4-yl-1H-pyrazolo[3,4-b]pyridine-3-carbonyl)phenyl]-1-phenylmethanesulfonamide] | MKK4, residual percent of control binding (PoC) (MKK4): +++ (PoC < 1); Selectivity vs. JNK1, ratio PoC(JNK1)/PoC(MKK4) (JNK1): +++ (PoC(JNK1)/PoC(MKK4) ≥ 30); Selectivity vs. MKK7, ratio PoC(MKK7)/PoC(MKK4) (MKK7): +++ (PoC(MKK7)/PoC(MKK4) ≥ 30); Selectivity vs. BRaf, ratio PoC(BRaf)/PoC(MKK4) (BRaf): +++ (PoC(BRaf)/PoC(MKK4) ≥ 30)
5 | < 0.5 |  | CS(=O)(=O)Nc1c(F)ccc(C(=O)c2n[nH]c3ncc(-c4ccc(-c5nnn[nH]5)cc4)cc23)c1F [Example 54a, N-[2,6-difluoro-3-[5-[4-(1H-tetrazol-5-yl)phenyl]-1H-pyrazolo[3,4-b]pyridine-3-carbonyl]phenyl]methanesulfonamide] | 
6 |  | 1 to 10 | CCCS(=O)(=O)Nc1ccc(F)c(C(=O)c2n[nH]c3ncc(-c4ccc(NS(C)(=O)=O)cc4)cc23)c1F [Example 51g, N-(2,4-difluoro-3-(5-(4-(methylsulfonamido)phenyl)-1H-pyrazolo[3,4-b]pyridine-3-carbonyl)phenyl)propane-1-sulfonamide] | 
7 |  | 0.5 to 1 | CCCS(=O)(=O)Nc1c(F)ccc(C(=O)c2n[nH]c3ncc(-c4ccc(S(N)(=O)=O)cc4C)cc23)c1F [Example 70, 4-(3-(2,4-difluoro-3-(propylsulfonamido)benzoyl)-1H-pyrazolo[3,4-b]pyridin-5-yl)-3-methylbenzenesulfonamide] | 
8 |  | 1 to 10 | CCCS(=O)(=O)Nc1c(F)ccc(C(=O)c2n[nH]c3ncc(-c4ccc(Cl)cc4C)cc23)c1F [Example 72] | 
9 | < 0.5 |  | CCCS(=O)(=O)Nc1c(F)ccc(C(=O)c2n[nH]c3ncc(-c4ccccc4Cl)cc23)c1F [Example 64, N-(3-(5-(2-chlorophenyl)-1H-pyrazolo[3,4-b]pyridine-3-carbonyl)-2,6-difluorophenyl)propane-1-sulfonamide] | 
10 | < 0.5 |  | CCCS(=O)(=O)Nc1c(F)ccc(C(=O)c2n[nH]c3ncc(-c4ccc(O)cc4)cc23)c1F [Example 76, N-(2,6-difluoro-3-(5-(4-hydroxyphenyl)-1H-pyrazolo[3,4-b]pyridine-3-carbonyl)phenyl)propane-1-sulfonamide] | 
11 |  | > 10 | Cc1cc(F)ccc1-c1cnc2[nH]nc(C(=O)c3cccc(NS(C)(=O)=O)c3F)c2c1 [Example 39, N-(2-fluoro-3-(5-(4-fluoro-2-methylphenyl)-1H-pyrazo-lo[3,4-b]pyridine-3-carbonyl)-phenyl)methanesulfonamide] | 
12 |  | 1 to 10 | CCCS(=O)(=O)Nc1c(F)ccc(C(=O)c2n[nH]c3ncc(-c4ccc(F)cc4C)cc23)c1F [Example 66, N-(2,6-difluoro-3-(5-(4-fluoro-2-methylphenyl)-1H-pyrazolo[3,4-b]pyridine-3-carbonyl)phenyl) propane-1-sulfonamide] | 
13 | < 0.5 |  | CS(=O)(=O)Nc1c(F)ccc(C(=O)c2n[nH]c3ncc(-c4ccc(C(=O)O)cc4)cc23)c1F [Example 55, 4-[3-[2,4-difluoro-3-(methanesulfonamido)benzoyl]-1H-pyrazolo[3,4-b]pyridin-5-yl]benzoic acid] | 
14 |  | 1 to 10 | O=C(c1ccc(F)c(NS(=O)(=O)Cc2ccccc2)c1F)c1n[nH]c2ncc(-c3ccc(C4N=NN=N4)cc3)cc12 [Example 75, N-(3-(5-(4-(1H-tetrazol-5-yl)phenyl)-1H-pyrazolo[3,4-b]pyridine-3-carbonyl)-2,6-difluorophenyl)-1-phenylmethanesulfonamide] | 
15 |  | > 10 | CCCS(=O)(=O)Nc1c(F)ccc(C(=O)c2n[nH]c3ncc(-c4cnc(C(F)(F)F)nc4)cc23)c1F [Example 71, N-(2,6-difluoro-3-(5-(2-(trifluoromethyl)pyrimidin-5-yl)-1H-pyrazolo[3,4-b]pyridine-3-carbonyl)phenyl)propane-1-sulfonamide] | 
